{"source": "paper PMC7579232", "about": "(Current Clinical Pharmacology, 2020)", "origin": "cited, not measured here", "key": {"[1]": {"conditions": "rats"}, "[2]": {"conditions": "rabbits"}}, "data": [{"compound": "NC(=O)N1c2ccccc2C=Cc2ccccc21", "note": "[carbamazepine]", "values": [{"measurement": "Effect of pomegranate juice on elimination half-life", "setting": "[1]", "result": "does not affect"}, {"measurement": "Increase of AUC by pomegranate juice", "setting": "[1]; oral carbamazepine with pomegranate juice", "result": "approximately 1.5 fold"}]}, {"compound": "Cc1ncc2n1-c1ccc(Cl)cc1C(c1ccccc1F)=NC2", "note": "[midazolam]", "values": [{"measurement": "Effect of pomegranate juice on Cmax and AUC", "setting": "oral midazolam, healthy volunteers", "result": "did not affect"}]}, {"compound": "CCOC(=O)C1=C(C)NC(C)=C(C(=O)OC)C1c1cccc([N+](=O)[O-])c1", "note": "(stereo not drawn) [nitrendipine]", "values": [{"measurement": "Increase of area under the concentration-time curve by pomegranate juice", "setting": "[2]", "result": 2.03, "unit": "fold"}, {"measurement": "Increase of peak plasma concentration by pomegranate juice", "setting": "[2]", "result": 2, "unit": "fold"}]}, {"compound": "C=CC[C@@H]1/C=C(\\C)C[C@H](C)C[C@H](OC)[C@H]2O[C@@](O)(C(=O)C(=O)N3CCCC[C@H]3C(=O)O[C@H](/C(C)=C/[C@@H]3CC[C@@H](O)[C@H](OC)C3)[C@H](C)[C@@H](O)CC1=O)[C@H](C)C[C@@H]2OC", "note": "[tacrolimus]", "values": [{"measurement": "Effect of co-administered pomegranate dietary products on drug concentration", "setting": "a heart transplant patient", "result": "increased"}]}]}
